Reference: patent publication US20260028365A1 (BIOGEN MA INC., priority 2022, published 2026)
Structures can show the parent of a compound that is named as a salt.

Columns and labels:
Tyk2 = Tyk2 (Homo sapiens (Human), UniProt P29597); experiment: pSTAT4 Cell Assay (MSD, NK92 cells); format: cell-based; details: MSD
JH2 domain of human Tyk2 = JH2 domain of human Tyk2 (Homo sapiens (Human), UniProt P29597); experiment: JH2 Biochemical Assay (TR-FRET probe displacement); format: binding; details: JH2 domain of human Tyk2, TR-FRET probe displacement
JH2 domain of human Tyk2, sequence (P29597 575-876): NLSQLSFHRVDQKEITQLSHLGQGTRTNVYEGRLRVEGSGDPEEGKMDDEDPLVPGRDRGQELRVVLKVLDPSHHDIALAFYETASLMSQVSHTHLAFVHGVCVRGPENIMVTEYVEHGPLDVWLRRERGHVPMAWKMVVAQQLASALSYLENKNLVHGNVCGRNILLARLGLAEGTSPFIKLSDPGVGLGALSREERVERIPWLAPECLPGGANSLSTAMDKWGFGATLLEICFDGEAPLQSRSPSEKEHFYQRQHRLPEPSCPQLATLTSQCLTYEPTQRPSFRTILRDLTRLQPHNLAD

Tyk2, sequence (P29597 whole entry, the tested form may be a part): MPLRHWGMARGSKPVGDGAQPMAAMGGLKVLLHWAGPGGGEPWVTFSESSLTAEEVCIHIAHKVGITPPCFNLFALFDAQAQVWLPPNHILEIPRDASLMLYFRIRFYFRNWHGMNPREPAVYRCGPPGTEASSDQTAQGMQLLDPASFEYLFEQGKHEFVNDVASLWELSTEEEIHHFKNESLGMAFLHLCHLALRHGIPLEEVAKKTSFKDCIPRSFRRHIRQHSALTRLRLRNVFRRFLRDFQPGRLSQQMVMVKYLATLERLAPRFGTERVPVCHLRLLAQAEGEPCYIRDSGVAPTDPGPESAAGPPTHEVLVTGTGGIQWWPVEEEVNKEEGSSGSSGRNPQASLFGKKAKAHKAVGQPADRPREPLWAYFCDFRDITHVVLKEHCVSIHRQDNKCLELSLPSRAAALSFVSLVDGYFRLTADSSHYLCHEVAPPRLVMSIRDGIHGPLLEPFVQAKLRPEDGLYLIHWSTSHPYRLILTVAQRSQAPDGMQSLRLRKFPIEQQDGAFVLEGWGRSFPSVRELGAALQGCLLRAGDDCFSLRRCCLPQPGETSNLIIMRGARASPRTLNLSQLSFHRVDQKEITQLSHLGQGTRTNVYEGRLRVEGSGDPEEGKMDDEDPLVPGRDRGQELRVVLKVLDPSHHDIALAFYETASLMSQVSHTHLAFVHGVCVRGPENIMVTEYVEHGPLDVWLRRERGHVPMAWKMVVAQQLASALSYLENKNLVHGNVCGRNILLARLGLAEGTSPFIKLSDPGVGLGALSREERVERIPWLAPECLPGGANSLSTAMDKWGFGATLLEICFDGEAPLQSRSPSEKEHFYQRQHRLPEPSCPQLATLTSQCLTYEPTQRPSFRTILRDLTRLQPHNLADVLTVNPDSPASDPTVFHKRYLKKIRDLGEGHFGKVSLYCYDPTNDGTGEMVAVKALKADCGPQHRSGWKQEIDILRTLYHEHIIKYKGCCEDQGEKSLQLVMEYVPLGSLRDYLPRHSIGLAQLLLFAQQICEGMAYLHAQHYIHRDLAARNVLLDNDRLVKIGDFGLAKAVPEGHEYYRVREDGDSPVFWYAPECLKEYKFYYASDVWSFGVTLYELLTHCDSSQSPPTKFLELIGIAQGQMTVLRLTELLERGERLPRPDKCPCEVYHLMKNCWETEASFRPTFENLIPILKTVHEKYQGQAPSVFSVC

Row | SMILES | IC50 (Tyk2) [nM] | IC50 (JH2 domain of human Tyk2) [nM]
1 | CC(=O)Nc1cc(Nc2cc(C)nc(C(C)(F)F)n2)c(OCCC(C)F)cn1 (centres unmarked) [Example 444, N-(4-((2-(1,1-difluoroethyl)-6-methylpyrimidin-4-yl)amino)-5-(3-fluorobutoxy)pyridin-2-yl)acetamide] | 10 to 100 | ≤ 10
2 | COC(=O)Nc1cc(Nc2cc(OC3CC3)nc(C(C)(F)F)n2)c(OCCN(C)C)cn1 [Example 447, methyl (4-((6-cyclopropoxy-2-(1,1-difluoroethyl)pyrimidin-4-yl)amino)-5-(2-(dimethylamino)ethoxy)pyridin-2-yl)carbamate] | 10 to 100 | ≤ 10
3 | COc1cnc(NC(C)=O)cc1Nc1cc(C)nc(C23COC(C2)C3)n1 [Example 448, N-(4-((2-(2-oxabicyclo[2.1.1]hexan-4-yl)-6-methylpyrimidin-4-yl)amino)-5-methoxypyridin-2-yl)acetamide] | 100 to 1000 | 10 to 100
4 | COc1cnc(NC(C)=O)cc1Nc1cc(C)nc(C23COC(C)(C2)C3)n1 [Example 449, N-(5-methoxy-4-((6-methyl-2-(1-methyl-2-oxabicyclo[2.1.1]hexan-4-yl)pyrimidin-4-yl)amino)pyridin-2-yl)acetamide] | ≥ 1000 | 100 to 1000
5 | COc1cnc(NC(C)=O)cc1Nc1ccnc(C2CCOC2)n1 (centres unmarked) [Example 450, N-(5-methoxy-4-((2-(tetrahydrofuran-3-yl)pyrimidin-4-yl)amino)pyridin-2-yl)acetamide] | ≥ 1000 | 10 to 100
6 | COc1cnc(NC(C)=O)cc1Nc1cc(C)nc(C2CCOC2)n1 (centres unmarked) [Example 451, N-(5-methoxy-4-((6-methyl-2-(tetrahydrofuran-3-yl)pyrimidin-4-yl)amino)pyridin-2-yl)acetamide] | ≥ 1000 | 10 to 100
7 | COc1cnc(NC(C)=O)cc1Nc1cc(OC2CCC2)nc(C(C)(F)F)n1 [Example 455, N-(4-((6-cyclobutoxy-2-(1,1-difluoroethyl)pyrimidin-4-yl)amino)-5-methoxypyridin-2-yl)acetamide trifluoroacetate] | ≤ 10 | ≤ 10
8 | COc1cnc(NC(C)=O)cc1Nc1cc(OC2CC(C#N)C2)nc(C(C)(F)F)n1 (centres unmarked) [Example 456, N-(4-((6-(3-cyanocyclobutoxy)-2-(1,1-difluoroethyl)pyrimidin-4-yl)amino)-5-methoxypyridin-2-yl)acetamide] | 10 to 100 | ≤ 10
9 | CCOc1cnc(NC(C)=O)cc1Nc1cc(OC2CC(F)C2)nc(C(C)(F)F)n1 (centres unmarked) [Example 457, N-(4-((2-(1,1-difluoroethyl)-6-(3-fluorocyclobutoxy)pyrimidin-4-yl)amino)-5-ethoxypyridin-2-yl)acetamide trifluoroacetate] | 10 to 100 | ≤ 10
10 | CCOc1cnc(NC(C)=O)cc1Nc1cc(O[C@H]2C[C@@H](F)C2)nc(C(C)(F)F)n1 [Example 458, N-(4-((2-(1,1-difluoroethyl)-6-((1s,3s)-3-fluorocyclobutoxy)pyrimidin-4-yl)amino)-5-ethoxypyridin-2-yl)acetamide] | ≤ 10 | ≤ 10
11 | CCOc1cnc(NC(C)=O)cc1Nc1cc(OC2CC(F)(F)C2)nc(C(C)(F)F)n1 [Example 459, N-(4-((6-(3,3-difluorocyclobutoxy)-2-(1,1-difluoroethyl)pyrimidin-4-yl)amino)-5-ethoxypyridin-2-yl)acetamide] | 10 to 100 | ≤ 10
12 | COc1cnc(NC(C)=O)cc1Nc1cc(OC2CC(F)(F)C2)nc(C(C)(F)F)n1 [Example 460, N-(4-((6-(3,3-difluorocyclobutoxy)-2-(1,1-difluoroethyl)pyrimidin-4-yl)amino)-5-methoxypyridin-2-yl)acetamide] | 10 to 100 | ≤ 10
13 | COc1cnc(NC(C)=O)cc1Nc1cc(O[C@H]2C[C@@H](F)C2)nc(C(C)(F)F)n1 [Example 461, N-(4-((2-(1,1-difluoroethyl)-6-((1s,3s)-3-fluorocyclobutoxy)pyrimidin-4-yl)amino)-5-methoxypyridin-2-yl)acetamide] | 10 to 100 | ≤ 10
